Experimental data reported in patent US9586951B2 (FUJIFILM Corporation, priority 2013, dated 2017).

The compounds below were run against T1, ATM (Homo sapiens, UniProt Q13315) (assay: ATM inhibition test (phosphorylation of Chk2 generated by ionizing radiation, AlphaScreen SureFire)). Conditions: phosphorylated Chk2 in NCI-H460 cells, ionizing radiation 8Gy, 1 hour after test compound treatment; read-out: ATM inhibitory activity.
T1 construct: detecting phosphorylation of Chk2 in a human non-small cell lung cancer cell line NCI-H460 (ATCC company); host or cells: NCI-H460 human non-small cell lung cancer cells
T1 sequence (Q13315 whole entry): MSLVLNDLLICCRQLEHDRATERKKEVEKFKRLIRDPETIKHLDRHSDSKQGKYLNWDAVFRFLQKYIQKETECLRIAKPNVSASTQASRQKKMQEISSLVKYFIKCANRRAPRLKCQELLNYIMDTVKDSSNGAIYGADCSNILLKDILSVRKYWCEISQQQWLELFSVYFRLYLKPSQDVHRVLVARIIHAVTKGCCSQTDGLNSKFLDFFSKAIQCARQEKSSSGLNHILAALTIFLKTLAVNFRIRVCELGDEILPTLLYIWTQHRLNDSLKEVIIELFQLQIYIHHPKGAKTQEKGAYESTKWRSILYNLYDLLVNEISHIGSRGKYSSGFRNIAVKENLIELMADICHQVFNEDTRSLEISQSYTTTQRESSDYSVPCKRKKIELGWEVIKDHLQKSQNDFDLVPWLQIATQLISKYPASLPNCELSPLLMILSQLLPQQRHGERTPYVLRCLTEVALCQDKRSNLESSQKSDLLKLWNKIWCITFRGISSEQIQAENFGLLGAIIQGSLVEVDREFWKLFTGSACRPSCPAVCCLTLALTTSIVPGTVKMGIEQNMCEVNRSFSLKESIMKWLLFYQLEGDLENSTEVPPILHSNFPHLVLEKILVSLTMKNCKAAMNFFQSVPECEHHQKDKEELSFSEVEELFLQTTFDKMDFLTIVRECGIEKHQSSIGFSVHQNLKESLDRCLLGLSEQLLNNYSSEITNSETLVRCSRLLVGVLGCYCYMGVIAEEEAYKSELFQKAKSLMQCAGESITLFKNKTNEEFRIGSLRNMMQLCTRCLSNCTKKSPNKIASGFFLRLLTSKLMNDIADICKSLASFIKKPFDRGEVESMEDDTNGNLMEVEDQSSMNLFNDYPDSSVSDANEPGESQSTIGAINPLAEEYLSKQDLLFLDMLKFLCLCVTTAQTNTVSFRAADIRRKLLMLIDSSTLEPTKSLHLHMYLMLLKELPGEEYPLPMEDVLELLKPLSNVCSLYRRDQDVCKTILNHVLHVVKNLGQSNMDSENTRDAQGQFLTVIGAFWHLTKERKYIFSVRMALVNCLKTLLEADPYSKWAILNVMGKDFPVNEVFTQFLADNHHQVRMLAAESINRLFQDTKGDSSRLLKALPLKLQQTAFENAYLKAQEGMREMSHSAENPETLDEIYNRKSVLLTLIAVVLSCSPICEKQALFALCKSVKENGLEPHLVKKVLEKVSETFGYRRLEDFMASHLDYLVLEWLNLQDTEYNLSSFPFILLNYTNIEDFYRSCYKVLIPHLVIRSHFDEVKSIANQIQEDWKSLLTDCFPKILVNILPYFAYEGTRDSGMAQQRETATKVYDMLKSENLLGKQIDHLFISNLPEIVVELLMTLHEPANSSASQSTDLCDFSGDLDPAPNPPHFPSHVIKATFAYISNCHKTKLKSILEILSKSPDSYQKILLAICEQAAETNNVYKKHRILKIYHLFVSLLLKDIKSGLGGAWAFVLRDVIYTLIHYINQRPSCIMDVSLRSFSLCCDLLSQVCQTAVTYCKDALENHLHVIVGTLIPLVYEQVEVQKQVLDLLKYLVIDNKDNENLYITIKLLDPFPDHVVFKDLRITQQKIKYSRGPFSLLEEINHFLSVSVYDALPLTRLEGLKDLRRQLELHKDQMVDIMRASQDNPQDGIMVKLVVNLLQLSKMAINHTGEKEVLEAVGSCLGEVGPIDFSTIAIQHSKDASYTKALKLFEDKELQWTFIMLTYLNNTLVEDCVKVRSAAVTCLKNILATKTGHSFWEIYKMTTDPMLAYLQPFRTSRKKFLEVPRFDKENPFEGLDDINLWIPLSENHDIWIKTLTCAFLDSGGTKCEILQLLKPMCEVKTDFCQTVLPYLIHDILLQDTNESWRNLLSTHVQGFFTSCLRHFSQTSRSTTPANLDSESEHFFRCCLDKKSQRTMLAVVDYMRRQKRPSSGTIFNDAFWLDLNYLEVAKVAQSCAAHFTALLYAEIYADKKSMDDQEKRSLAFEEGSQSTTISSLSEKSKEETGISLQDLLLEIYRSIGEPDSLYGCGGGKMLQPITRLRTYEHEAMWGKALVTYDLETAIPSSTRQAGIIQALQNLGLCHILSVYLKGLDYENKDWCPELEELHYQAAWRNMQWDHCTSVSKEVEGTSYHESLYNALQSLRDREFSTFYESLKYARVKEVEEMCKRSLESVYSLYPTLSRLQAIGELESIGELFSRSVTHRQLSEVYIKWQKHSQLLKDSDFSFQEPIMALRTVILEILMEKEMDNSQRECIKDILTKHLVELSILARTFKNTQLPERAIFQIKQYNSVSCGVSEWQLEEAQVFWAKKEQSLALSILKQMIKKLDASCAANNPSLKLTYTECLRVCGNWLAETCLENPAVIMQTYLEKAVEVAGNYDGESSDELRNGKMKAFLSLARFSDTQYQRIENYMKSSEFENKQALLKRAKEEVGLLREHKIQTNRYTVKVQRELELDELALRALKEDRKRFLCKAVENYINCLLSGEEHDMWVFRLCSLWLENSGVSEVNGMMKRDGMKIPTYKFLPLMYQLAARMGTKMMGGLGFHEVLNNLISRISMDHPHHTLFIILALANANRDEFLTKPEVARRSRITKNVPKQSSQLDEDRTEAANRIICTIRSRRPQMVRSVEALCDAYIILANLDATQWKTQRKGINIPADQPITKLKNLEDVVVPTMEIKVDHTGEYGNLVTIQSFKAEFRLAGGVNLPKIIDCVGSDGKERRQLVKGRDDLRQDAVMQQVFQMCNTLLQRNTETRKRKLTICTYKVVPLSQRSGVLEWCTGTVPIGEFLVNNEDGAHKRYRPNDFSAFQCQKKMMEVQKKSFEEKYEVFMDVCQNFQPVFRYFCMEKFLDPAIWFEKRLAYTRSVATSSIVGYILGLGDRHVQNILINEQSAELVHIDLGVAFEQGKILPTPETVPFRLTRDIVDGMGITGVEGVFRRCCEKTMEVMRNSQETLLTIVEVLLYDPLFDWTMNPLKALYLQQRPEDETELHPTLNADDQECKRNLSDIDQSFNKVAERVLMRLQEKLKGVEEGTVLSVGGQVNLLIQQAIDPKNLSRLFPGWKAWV
Assay type: cell-based
Method in brief: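 NCI-H460 cells, compound 1 h pre-treatment, 8Gy IR, further 1 h at 37° C in 5% CO2. Read-out: phospho-Chk2 via AlphaScreen SureFire. % inhibition relative to IR-induced signal window (irradiated vs non-irradiated drug-free wells).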

SMILES | IC50 [nM]
COCCNCC(Nc1ccc2c(c1)Sc1cccc(-c3cc(N4CCOCC4)cc(=O)[nH]3)c1S2)c1cccc(C)n1 (centres unmarked) [Example 1-34-2, 6-(7-((2-((2-Methoxyethyl)amino)-1-(6-methylpyridin-2-yl)ethyl)amino)thianthren-1-yl)-4-morpholino pyridin-2 (1H)-one] | 100 to 500
CC(CCNc1ccc2c(c1)Sc1cccc(-c3cc(N4CCOCC4)cc(=O)[nH]3)c1S2)N1CCOCC1 (centres unmarked) [Example 8-2, 4-Morpholino-6-(7-((3-morpholinobutyl)amino)thianthren-1-yl)pyridin-2(1H)-one] | 100 to 500
O=c1cc(N2CCOCC2)cc(-c2cccc3c2Sc2ccc(NC4CCCN(C5CCCC5)C4)cc2S3)[nH]1 (centres unmarked) [Example 1-24-5, 6-(7-((1-Cyclopentylpiperidin-3-yl)amino)thianthren-1-yl)-4-morpholino pyridin-2(1H)-one] | 100 to 500
CC(C)N1CCC(Nc2ccc3c(c2)Sc2cccc(-c4cc(N5CCOCC5)cc(=O)[nH]4)c2S3)CC1 [Example 1-12-116, 6-(7-((1-Isopropylpiperidin-4-yl)amino)thianthren-1-yl)-4-morpholino pyridin-2(1H)-one] | 100 to 500
COCCN(CCOC)C[C@@H](COC)Nc1ccc2c(c1)Sc1cccc(-c3cc(N4CCOCC4)cc(=O)[nH]3)c1S2 [Example 1-46-3, (S)-6-(7-((1-(bis(2-methoxyethyl)amino)-3-methoxypropan-2-yl)amino)thianthren-1-yl)-4-morpholinopyridin-2(1H)-one] | 100 to 500
CC[C@H](N)C(C)Nc1ccc2c(c1)Sc1cccc(-c3cc(N4CCOCC4)cc(=O)[nH]3)c1S2 (stereo partly drawn) [Example 1-20-5, 6-(7-(((3S)-3-Aminopentan-2-yl)amino)thianthren-1-yl)-4-morpholino pyridin-2(1H)-one] | 100 to 500
CC(Nc1ccc2c(c1)Sc1cccc(-c3cc(N4CCOCC4)cc(=O)[nH]3)c1S2)C(=O)N1CCCC1 (centres unmarked) [Example 1-18-4] | 100 to 500
CC(Nc1ccc2c(c1)Cc1cccc(-c3cc(N4CCOCC4)cc(=O)[nH]3)c1O2)c1ncc(CO)cn1 (centres unmarked) [Example 2-14-66, 6-(7-((1-(5-(Hydroxymethyl)pyrimidin-2-yl)ethyl)amino)-9H-xanthen-4-yl)-4-morpholino pyridin-2(1H)-one] | 500 to 2000
COc1ccc(CNc2ccc3c(c2)Sc2cccc(-c4cc(N5CCOCC5)cc(=O)[nH]4)c2O3)cn1 [Example 4-8-11, 6-(8-(((6-Methoxypyridin-3-yl)methyl)amino)phenoxathiin-4-yl)-4-morpholino pyridin-2(1H)-one] | 100 to 500
CCCC(Nc1ccc2c(c1)Sc1cccc(-c3cc(N4CCOCC4)cc(=O)[nH]3)c1S2)c1cncc(OC)c1 (centres unmarked) [Example 1-12-26, 6-(7-((1-(5-Methoxypyridin-3-yl)butyl)amino)thianthren-1-yl)-4-morpholino pyridin-2 (1H)-one] | 100 to 500
Cc1ccc(C(CCN(C)CCCN(C)C)Nc2ccc3c(c2)Sc2cccc(-c4cc(N5CCOCC5)cc(=O)[nH]4)c2S3)nc1 (single isomer, unassigned) [Example 10-5-2, 6-(7-((3-((3-(Dimethylamino)propyl)(methyl)amino)-1-(5-methylpyridin-2-yl)propyl)amino)thianthren-1-yl)-4-morpholinopyridin-2(1H)-one] | 100 to 500
CN1CCC(CNc2ccc3c(c2)Sc2cccc(-c4cc(N5CCOCC5)cc(=O)[nH]4)c2S3)CC1 [Example 1-12-31, 6-(7-(((1-Methylpiperidin-4-yl)methyl)amino)thianthren-1-yl)-4-morpholino pyridin-2(1H)-one] | 100 to 500
CC(CN1CCNCC1)Nc1ccc2c(c1)Sc1cccc(-c3cc(N4CCOCC4)cc(=O)[nH]3)c1S2 (centres unmarked) [Example 1-14, 4-Morpholino-6-(7-((1-(piperazin-1-yl)propan-2-yl)amino)thianthren-1-yl)pyridin-2(1H)-one] | 500 to 2000
Cc1cncc(C(C)Nc2ccc3c(c2)Cc2cccc(-c4cc(N5CCOCC5)cc(=O)[nH]4)c2O3)c1 (single isomer, unassigned) [Example 2-14-88-2, 6-(7-((1-(5-methylpyridin-3-yl)ethyl)amino)-9H-xanthen-4-yl)-4-morpholinopyridin-2(1H)-one] | 100 to 500
Cc1ccc(C(Nc2ccc3c(c2)Sc2cccc(-c4cc(N5CCOCC5)cc(=O)[nH]4)c2S3)C2CNCCO2)nc1 (single isomer, unassigned) [Example 1-55-1, 6-(7-(((5-methylpyridin-2-yl)(morpholin-2-yl)methyl)amino)thianthren-1-yl)-4-morpholinopyridin-2(1H)-one] | < 100
CC(CN1CCOCC1)C(=O)Nc1ccc2c(c1)Sc1cccc(-c3cc(N4CCOCC4)cc(=O)[nH]3)c1S2 (centres unmarked) [Example 8-3, 2-Methyl-3-morpholino-N-(6-(4-morpholino-6-oxo-1,6-dihydropyridin-2-yl)thianthren-2-yl)propanamide] | 500 to 2000

SMILES | IC50 [nM]
CC(CNC1CCCCC1)Nc1ccc2c(c1)Sc1cccc(-c3cc(N4CCOCC4)cc(=O)[nH]3)c1S2 (centres unmarked) [Example 1-13-7, 6-(7-((1-(Cyclohexylamino)propan-2-yl)amino)thianthren-1-yl)-4-morpholino pyridin-2(1H)-one] | 100 to 500
O=c1cc(N2CCOCC2)cc(-c2cccc3c2Sc2ccc(NC(CO)CN4CCCCC4)cc2S3)[nH]1 (centres unmarked) [Example 1-37-4, 6-(7-((1-Hydroxy-3-(piperidin-1-yl)propan-2-yl)amino)thianthren-1-yl)-4-morpholino pyridin-2(1H)-one] | 100 to 500
N#Cc1ccc(CCN2CCC(Nc3ccc4c(c3)Cc3cccc(-c5cc(N6CCOCC6)cc(=O)[nH]5)c3O4)CC2)cc1 [Example 2-30-19, 4-(2-(4-((5-(4-Morpholino-6-oxo-1,6-dihydropyridin-2-yl)-9H-xanthen-2-yl)amino)piperidin-1-yl)ethyl) benzonitrile] | 500 to 2000
Cc1cc(C(C)Nc2ccc3c(c2)Cc2cccc(-c4cc(N5CCOCC5)cc(=O)[nH]4)c2O3)ncn1 (centres unmarked) [Example 2-14-52, 6-(7-((1-(6-Methylpyrimidin-4-yl)ethyl)amino)-9H-xanthen-4-yl)-4-morpholino pyridin-2 (1H)-one] | 100 to 500
CCN(C)CCC(Nc1ccc2c(c1)Sc1cccc(-c3cc(N4CCOCC4)cc(=O)[nH]3)c1S2)c1ccc(C)cn1 (single isomer, unassigned) [Example 1-51-9, 6-(7-((3-(Ethyl(methyl)amino)-1-(5-methylpyridin-2-yl)propyl)amino)thianthren-1-yl)-4-morpholino pyridin-2 (1H)-one] | < 100
O=c1cc(N2CCOCC2)cc(-c2cc(F)cc3c2Oc2ccc(NCc4cc(C5CC5)ccn4)cc2C3)[nH]1 [Example 2-48-4, 6-(7-(((4-Cyclopropylpyridin-2-yl)methyl)amino)-2-fluoro-9H-xanthen-4-yl)-4-morpholinopyridin-2(1H)-one] | 100 to 500
Cc1ccc(C(Nc2ccc3c(c2)Sc2cccc(-c4cc(N5CCOCC5)cc(=O)[nH]4)c2S3)C2CCN(CC(F)F)CC2)nc1 (centres unmarked) [Example 1-58, 6-(7-(((1-(2,2-difluoroethyl)piperidin-4-yl)(5-methylpyridin-2-yl)methyl)amino)thianthren-1-yl)-4-morpholinopyridin-2(1H)-one] | < 100
O=c1cc(N2CCOCC2)cc(-c2cccc3c2Oc2ccc(NCc4ccc(-n5cccn5)nc4)cc2C3)[nH]1 [Example 2-2-31, 6-(7-(((6-(1H-Pyrazol-1-yl)pyridin-3-yl)methyl)amino)-9H-xanthen-4-yl)-4-morpholino pyridin-2(1H)-one] | 100 to 500
CC(Nc1ccc2c(c1)Cc1cccc(-c3cc(N4CCOCC4)cc(=O)[nH]3)c1O2)c1cc(Cl)ncn1 (centres unmarked) [Example 2-14-59, 6-(7-((1-(6-Chloropyrimidin-4-yl)ethyl)amino)-9H-xanthen-4-yl)-4-morpholino pyridin-2(1H)-one] | 100 to 500
O=c1cc(N2CCOCC2)cc(-c2cccc3c2Oc2ccc(NC4CCN(CCc5ccc(F)cc5)CC4)cc2C3)[nH]1 [Example 2-30-14, 6-(7-((1-(4-Fluorophenethyl)piperidin-4-yl)amino)-9H-xanthen-4-yl)-4-morpholino pyridin-2(1H)-one] | 100 to 500
CN1CCOc2cc(CNc3ccc4c(c3)Cc3cccc(-c5cc(N6CCOCC6)cc(=O)[nH]5)c3O4)cnc21 [Example 2-2-5, 6-(7-(((4-Methyl-3,4-dihydro-2H-pyrido[3,2-b] [1,4]oxazin-7-yl)methyl)amino)-9H-xanthen-4-yl)-4-morpholino pyridin-2 (1H)-one] | 100 to 500
Cc1cnc(C(CCN(C)CCO)Nc2ccc3c(c2)Sc2cccc(-c4cc(N5CCOCC5)cc(=O)[nH]4)c2S3)cn1 (single isomer, unassigned) [Example 10-4-2, 6-(7-((3-((2-Hydroxyethyl)(methyl)amino)-1-(5-methylpyrazin-2-yl)propyl)amino)thianthren-1-yl)-4-morpholinopyridin-2(1H)-one] | 100 to 500
CNc1ccc2c(c1)Cc1cccc(-c3cc(N4CCOCC4)cc(=O)[nH]3)c1S2 [Example 3-10, 6-(7-(methylamino)-9H-thioxanthen-4-yl)-4-morpholinopyridin-2(1H)-one] | 500 to 2000
O=c1cc(N2CCOCC2)cc(-c2cccc3c2Sc2ccc(NC4CCN(Cc5cccnc5)C4)cc2S3)[nH]1 (centres unmarked) [Example 1-24-11, 4-Morpholino-6-(7-((1-(pyridin-3-ylmethyl)pyrrolidin-3-yl)amino)thianthren-1-yl)pyridin-2 (1H)-one] | < 100
O=c1cc(N2CCOCC2)cc(-c2cccc3c2Sc2ccc(NC4CCN(C5CCOC5)C4)cc2S3)[nH]1 (centres unmarked) [Example 1-24-14, 4-Morpholino-6-(7-((1-(tetrahydrofuran-3-yl)pyrrolidin-3-yl)amino)thianthren-1-yl)pyridin-2 (1H)-one] | 100 to 500
COc1ccnc(C(C)Nc2ccc3c(c2)Cc2cccc(-c4cc(N5CCOCC5)cc(=O)[nH]4)c2O3)n1 (centres unmarked) [Example 2-14-56, 6-(7-((1-(4-Methoxypyrimidin-2-yl)ethyl)amino)-9H-xanthen-4-yl)-4-morpholino pyridin-2(1H)-one] | 100 to 500
